Measurements published in patent US12655104B2, “Anticancer compounds selective for ER-positive cancers” (THE BOARD OF TRUSTEES OF THE UNIVERSITY OF ILLINOIS, priority 2020, dated 2026).
Where two headings read alike, the source gives them in different places.

Legend:
MCF-7 cells = test: Alamar blue fluorescence viability (IC50), MCF-7; format: cell-based; conditions: Homo sapiens
Experimental: (§1) Cancer Cell Lines: Culturing Conditions and Validation. All cell lines were cultured at 37° C. with 5% CO2. All ERα-positive cell lines were grown in media lacking phenol red. MCF-7 were grown in EMEM with 10% FBS and 1% penicillin-streptomycin (P/S). T47D were cultured in MEM with 10% FBS and 1% P/S. TYS and TDG cells were grown in MEM supplemented with 10% CD-FBS and 1% P/S. HCT-116 and MDA-MB-231 cells were cultured in RPMI-1640 supplemented with 10% FBS and 1% P/S. MDA-MB-436 cells were cultured in DMEM supplemented with 10% FBS and 1% P/S. HT-29 were cultured in McCoy's media supplemented with 10% FBS and 1% P/S. All cell lines were used directly from ATCC stocks and/or have been further authenticated using PowerPlex16HS Assay (Promega) as described previously.^54 In short, >1 million cells were harvested and lysed using the cell lysis buffer (50 mM Tris, 50 mM EDTA, 25 mM sucrose, 100 mM NaCl, 1% SDS, pH 8). DNA extraction and short tandem repeats (STRs) profiling for each cell line were carried out at the University of Arizona Genetics Core (UAGC). Autosomal STR profiles were compared to reference databases such as ATCC, DSMZ, and JCRB.
(§2) Alamar Blue Fluorescence for Anticancer Activity (IC50). 2,000-15,000 cells per well were seeded a 96-well plate. Cells were allowed to adhere before DMSO stock solutions of test compounds were added to each well with a final concentration of DMSO in each well=1%; final volume: 100 μL. At the end of the desired incubation time (e.g., 24 or 72 hours), media in each well was aspirated and new fresh media (no compound, 100 μL) was added. Alamar blue solution (4 mg resazurin per 40 mL PBS) was then added (10 μL). After 2-6 hours incubation, each well's fluorescence (λexcit.=555 nm, λemission.=585 nm) was measured using a SpectraMax M3 plate reader (Molecular Devices). Percent dead was determined by comparison to a 100% dead control: 100 μM raptinal treated cells. Dose dependent curves and IC50 were calculated using Origin Pro V10.

T47D-ERαD538G (TDG) = test: Alamar blue fluorescence viability (IC50), TDG; format: cell-based; conditions: 24 h, read-out: IC50 24 hr (μM)
Experimental: as §1, with “DNA extraction and short tandem repeats (STRs) profiling for each cell line were carried out at the University of Arizona Genetics Core (UAGC). Autosomal STR profiles were compared to reference databases such as ATCC, DSMZ, and JCRB.” left out
Alamar Blue Fluorescence for Anticancer Activity (IC50). […] After 2-6 hours incubation, each well's fluorescence (λexcit.=555 nm, λemission.=585 nm) was measured using a SpectraMax M3 plate reader (Molecular Devices). Percent dead was determined by comparison to a 100% dead control: 100 μM raptinal treated cells. Dose dependent curves and IC50 were calculated using Origin Pro V10.

HT-29 = test: Alamar blue fluorescence viability (IC50), HT-29; format: cell-based; conditions: for IC50: Homo sapiens
Experimental: as §1, §2

ERα− cancer cell lines = test: Selectivity of cell killing, ERα+ versus ERα− cancer cell lines; format: cell-based
Experimental: as §1, §2

[1] = Maximum tolerated dose (MTD) in mice; format: in vivo; conditions: female, CD-1, in vivo, Mouse, single dose, read-out: MTD
Source text: (§3) Maximum Tolerated Dose (MTD) Experiments in Mice and Rats. […] Rodents were monitored for signs of distress, lethargy, neurotoxicity, and so forth for multiple days after compound administration. […] The MTD was defined as the maximum dose in which any acute side effects observed were tolerated and no lethality observed.

CD-1 mice = test: Maximum tolerated dose (MTD) in mice; format: in vivo
Source text: as §3

[2] = Maximum tolerated dose (MTD) in rats; format: in vivo; conditions: Sprague Dawley, in vivo, iv; Rat, I.V., single dose; read-out: MTD
Source text: as §3

[3] = tested on: CD Sprague Dawley IGS rats; test: Maximum tolerated dose (MTD) in rats; format: in vivo; conditions: Rat, I.V.
Source text: as §3

MCF-7 tumors = test: MCF-7 orthotopic tumor model; format: in vivo, mice
Experimental: MCF-7 Orthotopic Tumor Model. Nu/J ovariectomized mice (Jackson's lab) were supplemented with a 60-day E2 pellet (0.36 mg, Innovative Research of America) 2-3 days prior to tumor cell inoculation. MCF-7 cells (5×10^6, in 1:1 HBSS:matrigel) were inoculated into the mammary fat pad and allowed to establish and tumors grown to ˜300-400 mm^3 (˜21-28 days to establish). […] Tumor size was measured by caliper, and mouse weights were recorded.

[4] = tested on: anticipatory unfolded protein response (a-UPR); test: a-UPR immunoblotting/western blot in MCF-7 cells; format: cell-based
Experimental: a-UPR Immunoblotting/Western Blot Procedure. 400,000 MCF-7 cells/per well were seeded into 6 or 12 well plates and allowed to adhere overnight. Media was then aspirated from each well and then fresh media with diluted test compound (0.1% DMSO concentration) was added accordingly. Cells were incubated for 4 or 6 hours, then harvested. PBS-washed cell pellets were then lysed using RIPA buffer containing phosphatase (BioVision) and protease inhibitor cocktail (Calbiochem). Protein concentrations were determined using the BCA assay (Pierce). Lysates containing 10-15 μg of protein were loaded onto 4-20% gradient gels (BioRad), and SDS-PAGE was run. Proteins were then transferred onto membrane (PDVF Millipore) and blots blocked with BSA solution (2 g in 40 mL TBST) for one hour. After blocking, primary antibody was added and incubated overnight (using manufacturer's recommended dilutions). Following overnight incubation, blots were washed with TBST (5-minute incubation for each wash, washed 3 times), then incubated with HRP-linked secondary antibody for 1 hour in TBST. Blots were washed (10-minute incubation for each wash for a total of two ten-minute washes). SuperSignal West Pico Solution was then added following manufacturer's procedures and blots imaged with ChemiDoc.
Antibodies. […]

Work on O=C1Nc2c(C(F)(F)F)cccc2[C@@]1(c1ccc(O)cc1)N1CCC(F)(F)CC1 (single isomer, unassigned) [ErSO-DFP] yielded an IC50 (MCF-7 cells; MCF7, 24 h, read-out: IC50 24 hr (μM)) of 0.017 ± 0.002 µM, an IC50 (MCF-7 cells; MCF7, 72 h, read-out: IC50 72 hr (μM)) of 0.017 ± 0.001 µM and an IC50 (MCF-7 cells; MCF7, read-out: pIC50 (converted)) of 0.017 µM. For the same compound, the IC50 (T47D-ERαD538G (TDG)) was 0.009 ± 0.001 µM, the “Fold Change” value (HT-29; Average Fold Change between 24/72 hr IC50 values for MCF-7 and HT-29) was 1588 and the IC50 (HT-29; HT-29, 24 h, read-out: IC50 24 hr (μM)) was 33 ± 4 µM. The IC50 (HT-29; HT-29, 72 h, read-out: IC50 72 hr (μM)) was 27 ± 4 µM, the “average fold difference between IC50 values of ERα+ and ERα− cancer cell lines” value (ERα− cancer cell lines; measured at both 24 and 72 hours) was > 2750 fold and the IC50 (ERα− cancer cell lines; read-out: IC50 in ERα− cell lines) was > 25000 nM. For the same compound, the MTD ([1]; iv, I.V.) was 95 mg/kg, the MTD ([1]; po, P.O.) was > 200 mg/kg and the “Fold Increase Rel. to ErSO (MTD)” value (CD-1 mice; Mouse, I.V.) was 4.8. The “fold increase in tolerability relative to ErSO” value (CD-1 mice; both mice and rats, administered intravenously) was ~5 fold, the MTD [2] was > 50 mg/kg and the “Fold Increase Rel. to ErSO (MTD)” value [3] was 3.3-5. For the same compound, the “MTD” value ([3]; single dose) was >50 mg/kg, the “mouse weight change during MCF-7 study” value (MCF-7 tumors; I.V. 5 mg/kg once-a-week, three total doses) was “no significant weight change” and the “antitumor effect on MCF-7 tumors” value (MCF-7 tumors; I.V. 5 mg/kg once-a-week, three total doses, tumors >300 mm^3) was “profound regression of MCF-7 tumors”. The “increase in therapeutic index (TI) relative to ErSO” value (MCF-7 tumors; from efficacy data and head-to-head MTD studies) was ≥ 5 fold and the “a-UPR activation (P-AMPK, P-EIF2α, cleavage of ATF6α p90), western blot” value [4] was “activates the a-UPR in a time- and concentration-dependent manner”.
